Values quoted from earlier work as cited in US8029830B2, “Composition and method for promoting internal health and external appearance” (Nuvocare Health Services Inc., priority 2008, dated 2011).
Where two headings read alike, the source gives them in different places.

Key:
rat kidney fibroblasts = details: UVA light
[1] = 28 days of supplementation
male subjects = details: cycling capacity
thymocytes = details: irradiated (6 Gy)
macrophage cultures = details: impairment induced by phorbol esters
[2] = in vitro
[3] = human, in vivo
[4] = test system: lean volunteers and post-obese subjects
rats = details: rat, in vivo
older and younger women = details: following caffeine ingestion
sedentary human subjects = details: for body fat percentage, body fat mass and lean body mass: oral ingestion for 12 weeks
[5] = test system: human plasma, blood platelets and lymphocytes
[6] = test system: rat model of diabetic neuropathy; details: intraperitoneal treatment for 2 weeks
healthy volunteers = details: daily oral, 8 weeks
[7] = test system: persons with type 2 diabetes mellitus
mice = details: topical application
pigs = details: pretreatment; hyperbaric oxygen (HBO)
healthy human volunteers = details: at the end of the treatment period

Q: Which results are given for `CC1=C(/C=C/C(C)=C/C=C/C(C)=C/C=C/C=C(C)/C=C/C=C(C)/C=C/C2=C(C)C(=O)[C@@H](O)CC2(C)C)C(C)(C)C[C@H](O)C1=O` [astaxanthin]?
A: plasma 12- and 15-hydroxy fatty acids (healthy subjects; during supplementation): reduced significantly; plasma astaxanthin levels (healthy subjects; in vivo): significantly elevated; tolerability (healthy subjects; in vivo): well tolerated; indices of oxidative stress (CAT, SOD activities, TBARS) (rat kidney fibroblasts): inhibit these indices of oxidative stress; protective properties compared to beta-carotene and lutein (rat kidney fibroblasts): superior protective properties; improvement in skin-surface-moisture (middle-aged women; oral delivery, after 6 weeks): 52%; reduction in wrinkles (middle-aged women; oral delivery, after 6 weeks): 54%; fine lines and wrinkles, elasticity and moisture content (middle-aged women; six weeks, instrumentation and dermatologist's review): significant improvements

Q: With `NCCC(=O)O` [beta-alanine] as the molecule, how does the “onset of neuromuscular fatigue and ventilatory threshold” value (women subjects; 4 weeks, submaximal workloads) read?
A: The value was “delayed”.

Q: And the time-to-exhaustion (women subjects; maximal cycle ergometry performance)?
A: Its time-to-exhaustion is “increased”.

Q: And the “increase in PWCFT” value [1]?
A: The value was 14.5%.

Q: And the “muscle carnosine level and total work done” value (male subjects)?
A: The value was “significant muscle carnosine level increases, as well as an increase in total work done”.

Q: What about the muscle carnosine levels (vastus lateralis) of the same molecule?
A: Its muscle carnosine levels is “significant increases”.

Q: Which results are given for `CC[C@H](CC[C@@H](C)[C@H]1CC[C@H]2[C@@H]3CC=C4C[C@@H](O)CC[C@]4(C)[C@H]3CC[C@]12C)C(C)C` [beta-sitosterol]?
A: activities of antioxidant enzymes (SOD, CAT, GPx) (thymocytes): increasing; intracellular reactive oxygen species (ROS) (thymocytes): attenuating; irradiation-induced cell death and nuclear DNA strand breaks (thymocytes): decreased; glutathione/oxidized glutathione ratio (macrophage cultures): reverts the impairment; radical scavenging [2]: modest radical scavenger

Q: For `Cn1c(=O)c2c(ncn2C)n(C)c1=O` [caffeine], which energy expenditure [3] is on record?
A: The energy expenditure was “increased energy expenditure dose dependently”.

Q: And the “subsequent 12-h night EE” value ([4]; in vivo)?
A: Its value is “no influence”.

Q: What about the “increase in daily EE” value ([4]; lean volunteers) of the same molecule?
A: Its value is 150 kcal.

Q: And the “increase in daily EE” value ([4]; post-obese subjects)?
A: The value was 79 kcal.

Q: What about the “increase of energy expenditure (EE)” value ([4]; repeated administration at 2-hour intervals over a 12-hour day period, two subject groups) of the same molecule?
A: The value was 8-11%.

Q: And the neurodegeneration (rats)?
A: The neurodegeneration was “protective effects”.

Q: What about the energy expenditure (older and younger women) of the same molecule?
A: The energy expenditure was “increased energy expenditure significantly”.

Q: Which results are given for `C=C[C@@]1(C)CC(=O)[C@]2(O)[C@@]3(C)[C@@H](O)CCC(C)(C)[C@@H]3[C@H](O)[C@H](OC(C)=O)[C@@]2(C)O1` [forskholin]?
A: lean body mass gained, on average (sedentary human subjects; in the course of the study): 8.2 pounds; body fat percentage, body fat mass and lean body mass (sedentary human subjects): significantly decrease body fat percentage while increasing lean body mass; body fat percentage, body fat mass and lean body mass (sedentary human subjects; listed as forkohlin): decreasing body fat percentage and body fat mass

Q: What does the source list for `Oc1ccc(C=Cc2cc(O)cc(O)c2)cc1` [resveratrol]?
A: oxidative stress levels in plasma ([5]; after incubation with platinum compounds): distinct reduction; biomarker of lipid peroxidation ([5]; control blood platelets and platelets treated with platinum compounds): decreased the production; DNA damage (measured by comet assay) ([5]; lymphocytes, vs platinum compounds without resveratrol): significant decrease; pathologies associated with diabetic neuropathy [6]: protective effects

Q: Which results are given for `[Zn]` [zinc]?
A: plasma levels of lipid peroxidation products and DNA adducts (healthy volunteers): decreased; decrease of plasma TBARS ([7]; after six months): 15%; plasma zinc values ([7]; after three and six months of supplementation, all subjects): greater than 10.7 micro mol/L

Q: With epigallocatechin-3-gallate [EGCG] as the molecule, how does the “UVB-induced skin tumor development” value (mice) read?
A: The value was “prevents UVB-induced skin tumor development”.

Q: For superoxide dismutase, which DNA strand-break damage (pigs) is on record?
A: Its DNA strand-break damage is “protected against DNA strand-break damage”.

Q: With vitamin E as the molecule, how does the “decrease of urine lipid peroxidation products” value (healthy human volunteers) read?
A: The value was 27%.
